{"source": "patent US10329243B2", "about": "“Biphenyl derivative and uses thereof” (XI'AN LIBANG PHARMACEUTICAL CO., LTD, priority 2015, dated 2019)", "type_in_all_cases": "in vivo, SD rats", "conditions_in_all_cases": "rat, in vivo", "key": {"[1]": {"test_system": "SOD", "assay": "SOD determination, permanent cerebral ischemia model", "protocol": "(§1) Rats were intraperitoneally injected with 10% chloral hydrate 350 mg/kg after anesthesia and opened up at the center of the neck in accordance with the Zea Longa modified method. The right common carotid artery was separated, and the right external carotid artery branches was ligated. A small opening was made at the distal end of the external carotid artery, and a previously prepared thread was inserted through the common carotid artery and the external carotid artery bifurcation into the internal carotid artery, till the anterior end of the middle cerebral artery, with an immersed depth of 18 to 19 mm. The thread was then secured, and the wound was sutured layer by layer. After the operation, the rats were placed in a clean incubator to wake up. […] The sham operation group, the permanent cerebral ischemia model group, and the Example groups were prepared strictly according to the requirements of the cerebral ischemic reperfusion model, while in the sham operation group the thread was put only into the external carotid artery. The animals were allowed to eat and drink freely after waking up. The sham operation group, the permanent cerebral ischemia model group, and the Example groups were administered intravenously the aqueous solution of the biphenyl derivatives in PEG400 at 40 mg/kg (40 mg/kg means that 40 mg of the test compound per kg of the body weight of rats) 30 min before insertion of thread and 12 h after embolism, respectively. The sham operation group and the permanent cerebral ischemia model group were injected with the same amount of blank PEG400 aqueous solution at the same time point.\n(§2) 24 hours after the embolism, 8 rats in each group were sacrificed by decapitation, the brain was removed, rinsed with PBS (pH 7.4) at −20°i for 20 min, evenly sliced (with a thickness of 2 mm), stained in a 2% TTC solution at 37°% in the dark for 30 min, fixed in 10% formalin for 24 h, and photographs were taken to analyze the infarct volume. A mixture of femoral arterial and venous blood was drawn from another 8 rats in each group under anesthesia, placed in a low temperature centrifuge at 4° C., centrifuged at 3500 r/min for 20 min, and the supernatant was stored in a refrigerator at −20° C. ready for SOD and MDA detection. After the blood was drawn, a perfusion needle was insert through the apex to the ascending aorta, and saline at 4° C. was rapid infused until the effluent became clear, followed by 4% paraformaldehyde phosphate buffer perfusion for fixation; the brain was removed by craniotomy, and brain tissues 2 mm in front of and behind the optic chiasma were taken and fixed, dehydrated, rendered transparent, impregnated in wax, and embedded. Brain continuous coronary tissue pathological sections were consecutively cut for later use. The remaining 8 rats in each group were sacrificed, brains were removed, the ischemic brain hemispheres were immediately taken on an ice tray, and 10% brain tissue homogenate was prepared for the detection of IL-1β and TNF-α.\n(§3) SOD and MDA were determined strictly in accordance with instructions of the kit."}, "[2]": {"test_system": "MDA", "assay": "MDA determination, permanent cerebral ischemia model", "protocol": "as §1, §2, §3"}, "[3]": {"test_system": "Fas", "assay": "Fas determination (immunohistochemical method), cerebral ischemic reperfusion MCAO model", "protocol": "as §1, with “group, the ischemic reperfusion group, and” for “group, the permanent cerebral ischemia model group, and”, “waking up. After 2 h, the thread was pulled out to achieve reperfusion. The sham” for “waking up. The sham”, “min before reperfusion and 12” for “min before insertion of thread and 12”, “h after reperfusion, respectively. The” for “h after embolism, respectively. The”, “and the ischemic reperfusion group were” for “and the permanent cerebral ischemia model group were”\nas §2, with “reperfusion,” for “the embolism,”, “−20° i” for “−20°i”\n(§4) The immunohistochemical method was used for determination. Brain tissue paraffin sections were dewaxed into water, washed with 3% H2O2 to eliminate endogenous peroxidase activity, and rinsed with distilled water for 3 times. Sodium citrate buffer was used for antigen heat repairing, and blocking with calf serum was carried out at room temperature for 15 min; a rabbit anti-mouse Fas antibody was added dropwise, allowed to stand at 4°t overnight, biotinylated goat anti-rabbit IgG was added dropwise, and heated in a water bath at 37°a for 20 min. Washing with PBS for 5 min was continuously repeated 4 times, followed by staining with DAB and sufficient washing without counterstaining. The sections were then gradient dehydrated with alcohol, made transparent with toluene, sealed and fixed. Images were captured by a video camera under high-power optical microscope and inputted into the image analysis system for image analysis. […]"}, "[4]": {"test_system": "SOD", "assay": "SOD determination, cerebral ischemic reperfusion MCAO model", "protocol": "as §1, with “group, the ischemic reperfusion group, and” for “group, the permanent cerebral ischemia model group, and”, “waking up. After 2 h, the thread was pulled out to achieve reperfusion. The sham” for “waking up. The sham”, “min before reperfusion and 12” for “min before insertion of thread and 12”, “h after reperfusion, respectively. The” for “h after embolism, respectively. The”, “and the ischemic reperfusion group were” for “and the permanent cerebral ischemia model group were”\nas §2, with “reperfusion,” for “the embolism,”, “−20° i” for “−20°i”\nas §3"}, "[5]": {"test_system": "Fas", "assay": "Fas determination (immunohistochemical method), permanent cerebral ischemia model", "protocol": "as §1, §2, §4"}, "[6]": {"test_system": "MDA", "assay": "MDA determination, cerebral ischemic reperfusion MCAO model", "protocol": "as §1, with “group, the ischemic reperfusion group, and” for “group, the permanent cerebral ischemia model group, and”, “waking up. After 2 h, the thread was pulled out to achieve reperfusion. The sham” for “waking up. The sham”, “min before reperfusion and 12” for “min before insertion of thread and 12”, “h after reperfusion, respectively. The” for “h after embolism, respectively. The”, “and the ischemic reperfusion group were” for “and the permanent cerebral ischemia model group were”\nas §2, with “reperfusion,” for “the embolism,”, “−20° i” for “−20°i”\nas §3"}}}
{"smiles": "CC(C)c1cccc(C(C)C)c1O", "note": "[Propofol injection, propofol, reference compound]", "values": [{"measurement": "SOD ACTIVITY (U/mL)", "setting": "[1]", "result": "89.13 ± 3.82", "unit": "U/mL"}, {"measurement": "MDA CONTENT", "setting": "[2]", "result": "6.10 ± 0.29", "unit": "mmol/mL"}, {"measurement": "Fas average gray scale", "setting": "[3]", "result": "142.15 ± 5.71"}, {"measurement": "SOD ACTIVITY (U/mL)", "setting": "[4]", "result": "88.25 ± 2.19", "unit": "U/mL"}, {"measurement": "Fas average gray value", "setting": "[5]", "result": "140.51 ± 4.84"}, {"measurement": "MDA CONTENT", "setting": "[6]", "result": "5.58 ± 0.48", "unit": "mmol/mL"}]}
